Test results reported in patent publication US20220395553A1, “CXCR4 ANTAGONIST PEPTIDES” (COHBAR, INC., priority 2019, published 2022).
Square brackets hold non-standard residues; d marks the D form. Peptide text beside a SMILES is read from it.

How the values were obtained:
human CXCR4 [1] = target: T1, human CXCR4 (Homo sapiens, UniProt P61073); assay: IC50 for inhibition of CXCR4 activation, β-Arrestin recruitment (Example 22); format: cell-based; design: host or cells: C2C12 (mouse myoblast) CXCR4 β-Arrestin PathHunter cell line
Experimental: The assay was run with the DiscoverX protocol. β-Arrestin recruitment assays were performed by Eurofins-DiscoverX (Fremont, Calif.) using C2C12 CXCR4 β-Arrestin cell line (co-expressing ProLink tagged human CXCR4 and Enzyme Acceptor tagged β-Arrestin) and PathHunter detection kit. Peptides were initially prepared as 1 mM stock in H2O and tested in ten (10)-step concentration response curves using 3-fold dilution steps with 1 μM as highest concentration; a concentration range of 1 μM-0.05 nM was tested. C2C12 CXCR4 β-Arrestin cells were seed onto 384-well plates in standard medium. […] At the end of the 90 min incubation period, β-Arrestin recruitment in response to various treatments was quantified using a chemiluminescent complementation reporter assay to measure association of tagged human […] (ProLink tag) and tagged β-Arrestin (Enzyme Acceptor tag).

human CXCR4 [2] = target: T1, human CXCR4; assay: CXCR4/CXCL12 binding, HTRF format, single concentration (Example 23); design: host or cells: HEK293 (Tag-lite CXCR4 cells, frozen aliquots, transient expression); settings: 15 nM CXCR4R fluorescent probe, 3 hours, HEK293 Tag-lite CXCR4 cells
Experimental: Peptides were initially prepared as 1 mM stock in H2O and tested at a final concentration of 400 nM. Following the manufacture's protocol, a frozen aliquot of Tag-lite CXCR4 cells was thawed and immediately seeded onto 384-well plates in TLB. Immediately following the addition of cells, 400 nM peptide (final concentration) in TLB was added to the appropriate well. Then 15 nM (final concentration; EC80) of CXCR4R fluorescent probe was added to each well to initiate the HTRF assay. The plates were covered in aluminum foil and left at room temperature for 3 hours. Following the 3 hour incubation period, the plates were removed from the incubator and fluorescence measured using a Cytation 1 plate reader using a HTRF filter cube ([…]; BioTek; Winooski, Vt.). According manufacture's instruction data reduction was performed by calculating the ratio of 665 nm signal (TRF of 665 nm excitation by 620 emission; amount of CXCR4R fluorescent probe bound to terbium labeled CXCR receptor)/620 nm signal (620 excitation by 330 nm light source; normalization factor for amount of terbium labeled CXCR4 receptor in well)×10,000.

[3] = test system: CXCR4/CXCL12 induced p-MEK; assay: CXCR4/CXCL12 induced p-MEK in Jurkat cells (ELISA); format: cell-based, human; settings: 5 nM CXCL12, 5 min
Experimental: The assay was performed following a protocol similar to that described by Peng, et al., Mol Cancer Ther., 14 480-90 (2015), incorporated herein by reference. […] Jurkat cells were resuspended in standard growth media (RPMI+GlutaMax media; Gibco/Thermo Fisher Scientific; Gaithersburg, Md.) containing 10% FBS and 1% penicillin/streptomycin. Assays were performed using fresh or conditioned media (media cultured overnight in presence of Jurkat cells) to resuspend cells at density of 2×10^6 cells/ml and […] of cell suspension was immediately placed in 1.7 ml microfuge tubes. […] Following the 5 min incubation, cells were centrifuged at 1000×g for 4 min at 4° C. The supernatant was removed and the cells were rinsed with 1 ml of HBSS containing calcium and magnesium. The HBSS was removed and the cells were immediately lysed in 150 l of lysis buffer included with Phospho-MEK1 (Ser217/221) Sandwich ELISA kit (Cell Signaling Technology; Danvers, Mass.); lysis buffer was supplemented with 1 m M PMSF (Millipore-Sigma; Saint Louis, Mo.) and Halt protease/phosphatase inhibitor cocktail (Thermo-Fisher; Waltham, Mass.) prior to use. The samples were then placed on ice for 10 min and vortexed periodically. Following the lysis step, the samples were centrifuged at 12,500 rpm for 10 min at 4° C. p-MEK expression in each of the samples was then measure using Phospho-MEK1 (Ser217/221) Sandwich ELISA kit according to manufacturer's instructions. Absorbance was measured using a Cytation 3 plate reader at […] (BioTek; Winooski, Vt.).

T1 sequence (P61073 whole entry): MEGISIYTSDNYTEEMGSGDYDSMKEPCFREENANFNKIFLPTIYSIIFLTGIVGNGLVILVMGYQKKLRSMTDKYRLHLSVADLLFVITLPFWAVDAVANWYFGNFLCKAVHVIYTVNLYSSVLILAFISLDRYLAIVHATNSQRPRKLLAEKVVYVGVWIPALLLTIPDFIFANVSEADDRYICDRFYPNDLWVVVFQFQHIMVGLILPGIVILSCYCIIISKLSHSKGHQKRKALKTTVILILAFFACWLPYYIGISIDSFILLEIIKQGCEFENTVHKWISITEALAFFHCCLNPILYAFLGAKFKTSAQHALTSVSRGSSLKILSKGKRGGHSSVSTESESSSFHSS

| IC50 (human CXCR4 [1]) | Percent Inhibition of CXCR4/CXCL12 Binding (400 nM peptide) (human CXCR4 [2]) | Structure (SMILES) | Percent Inhibition of CXCR4/CXCL12 Induced p-MEK (100 nM Test Article) [3] | Percent Inhibition of CXCR4/CXCL12 Induced p-MEK (1 μM Test Article) [3] |
| --- | --- | --- | --- | --- |
| – | −5% | CC(C)C[C@H](NC(=O)[C@H](CO)NC(=O)[C@H](CO)NC(=O)[C@H](CC(=O)O)NC(=O)[C@@H](NC(=O)[C@H](CO)NC(=O)[C@H](Cc1c[nH]cn1)NC(=O)[C@H](Cc1c[nH]cn1)NC(=O)[C@H](Cc1ccc(O)cc1)NC(=O)[C@H](CCCNC(=N)N)NC(=O)[C@H](CCCNC(=N)N)NC(=O)[C@@H](N)CC(C)C)C(C)C)C(=O)N[C@@H](CCCNC(=N)N)C(=O)N1CCC[C@H]1C(=O)N[C@@H](Cc1ccc(O)cc1)C(=O)N[C@H](C(=O)N[C@@H](CCCCN)C(=O)O)[C@@H](C)O [compound 66] (H-LRRYHHSVDSSLRPYTK-OH; N-terminus and C-terminus assumed) | −7% | 13% |
| – | −10% | CC(C)C[C@H](NC(=O)[C@H](CO)NC(=O)[C@H](CO)NC(=O)[C@H](CC(=O)O)NC(=O)[C@@H](C)NC(=O)[C@H](CO)NC(=O)[C@H](Cc1c[nH]cn1)NC(=O)[C@H](Cc1c[nH]cn1)NC(=O)[C@H](Cc1ccc(O)cc1)NC(=O)[C@H](CCCNC(=N)N)NC(=O)[C@H](CCCNC(=N)N)NC(=O)[C@@H](N)CC(C)C)C(=O)N[C@@H](CCCNC(=N)N)C(=O)N1CCC[C@H]1C(=O)N[C@@H](Cc1ccc(O)cc1)C(=O)N[C@H](C(=O)N[C@@H](CCCCN)C(=O)O)[C@@H](C)O [compound 68] (H-LRRYHHS[dA]DSSLRPYTK-OH; N-terminus and C-terminus assumed) | – | – |
| – | −5% | CC(C)C[C@H](NC(=O)[C@H](CO)NC(=O)[C@H](CO)NC(=O)[C@H](CCCNC(=N)N)NC(=O)[C@@H](C)NC(=O)[C@H](CO)NC(=O)[C@H](Cc1c[nH]cn1)NC(=O)[C@H](Cc1c[nH]cn1)NC(=O)[C@H](Cc1ccc(O)cc1)NC(=O)[C@H](CCCNC(=N)N)NC(=O)[C@H](CCCNC(=N)N)NC(=O)[C@@H](N)CC(C)C)C(=O)N[C@@H](CC(=O)O)C(=O)N1CCC[C@H]1C(=O)N[C@@H](Cc1ccc(O)cc1)C(=O)N[C@H](C(=O)N[C@@H](CCCCN)C(=O)O)[C@@H](C)O [compound 69] (H-LRRYHHS[dA]RSSLDPYTK-OH; N-terminus and C-terminus assumed) | – | – |
| – | 72% | CC(C)C[C@H](NC(=O)[C@H](CO)NC(=O)[C@H](CO)NC(=O)[C@H](CCCNC(=N)N)NC(=O)[C@@H](C)NC(=O)[C@H](CO)NC(=O)[C@H](Cc1c[nH]cn1)NC(=O)[C@H](Cc1c[nH]cn1)NC(=O)[C@H](Cc1ccc(O)cc1)NC(=O)[C@H](CCCNC(=N)N)NC(=O)[C@H](CCC(=O)O)NC(=O)[C@@H](N)CC(C)C)C(=O)N[C@@H](CCCNC(=N)N)C(=O)N1CCC[C@H]1C(=O)N[C@@H](Cc1ccc(O)cc1)C(=O)N[C@@H](CO)C(=O)N[C@@H](CCCCN)C(=O)O [compound 78] (H-LERYHHS[dA]RSSLRPYSK-OH; N-terminus and C-terminus assumed) | 29% | 46% |

The remaining lines, values behind:

| Structure (SMILES) | IC50 (human CXCR4 [1]) | Percent Inhibition of CXCR4/CXCL12 Binding (400 nM peptide) (human CXCR4 [2]) | Percent Inhibition of CXCR4/CXCL12 Induced p-MEK (100 nM Test Article) [3] | Percent Inhibition of CXCR4/CXCL12 Induced p-MEK (1 μM Test Article) [3] |
| --- | --- | --- | --- | --- |
| CC(C)C[C@H](NC(=O)[C@H](CO)NC(=O)[C@H](CO)NC(=O)[C@H](CCCNC(=N)N)NC(=O)[C@@H](C)NC(=O)[C@H](CO)NC(=O)[C@H](Cc1c[nH]cn1)NC(=O)[C@H](Cc1c[nH]cn1)NC(=O)[C@H](Cc1ccc(O)cc1)NC(=O)[C@H](CCCNC(=N)N)NC(=O)[C@H](CCCNC(=N)N)NC(=O)[C@@H](N)CC(C)C)C(=O)N[C@@H](CCCNC(=N)N)C(=O)N1CCC[C@H]1C(=O)N[C@@H](Cc1ccc(O)cc1)C(=O)N[C@H](C(=O)N[C@@H](CCCCN)C(=O)O)[C@@H](C)O [compound 6] (H-LRRYHHS[dA]RSSLRPYTK-OH; N-terminus and C-terminus assumed) | 8 nM | −10% | – | – |
| CC(C)C[C@H](NC(=O)[C@H](CO)NC(=O)[C@H](CO)NC(=O)[C@H](CCCNC(=N)N)NC(=O)[C@@H](NC(=O)[C@H](CO)NC(=O)[C@H](Cc1c[nH]cn1)NC(=O)[C@H](Cc1c[nH]cn1)NC(=O)[C@H](Cc1ccc(O)cc1)NC(=O)[C@@H](N)CCCNC(=N)N)C(C)C)C(=O)N[C@@H](CCCNC(=N)N)C(=O)N1CCC[C@H]1C(=O)N[C@@H](Cc1ccc(O)cc1)C(=O)N[C@H](C(=O)N[C@@H](CCCCN)C(=O)O)[C@@H](C)O [compound 11] (H-RYHHSVRSSLRPYTK-OH; N-terminus and C-terminus assumed) | 175 nM | −9% | – | – |
| CC(C)C[C@H](NC(=O)[C@H](CO)NC(=O)[C@H](CO)NC(=O)[C@H](CCCNC(=N)N)NC(=O)[C@@H](C)NC(=O)[C@H](CO)NC(=O)[C@H](Cc1c[nH]cn1)NC(=O)[C@H](Cc1c[nH]cn1)NC(=O)[C@H](Cc1ccc(O)cc1)NC(=O)[C@H](CCCNC(=N)N)NC(=O)[C@H](CCC(=O)O)NC(=O)[C@@H](C)N)C(=O)N[C@@H](CCCNC(=N)N)C(=O)N1CCC[C@H]1C(=O)N[C@@H](Cc1ccc(O)cc1)C(=O)N[C@H](C(=O)N[C@@H](CCCCN)C(=O)O)[C@@H](C)O [compound 35] (H-[dA]ERYHHS[dA]RSSLRPYTK-OH; N-terminus and C-terminus assumed) | – | −13% | −7% | −6% |
| CC(C)C[C@H](NC(=O)[C@H](CO)NC(=O)[C@H](CO)NC(=O)[C@H](CCCNC(=N)N)NC(=O)[C@@H](NC(=O)[C@H](CO)NC(=O)[C@H](CCC(N)=O)NC(=O)[C@H](Cc1c[nH]cn1)NC(=O)[C@H](Cc1ccc(O)cc1)NC(=O)[C@H](CCCNC(=N)N)NC(=O)[C@H](CCC(=O)O)NC(=O)[C@@H](N)CC(C)C)C(C)C)C(=O)N[C@@H](CCCNC(=N)N)C(=O)N1CCC[C@H]1C(=O)N[C@@H](Cc1ccc(O)cc1)C(=O)N[C@H](C(=O)N[C@@H](CCCCN)C(=O)O)[C@@H](C)O [compound 51] (H-LERYHQSVRSSLRPYTK-OH; N-terminus and C-terminus assumed) | – | −2% | – | – |
| CC(C)C[C@H](NC(=O)[C@H](CO)NC(=O)[C@H](CO)NC(=O)[C@H](CCC(=O)O)NC(=O)[C@@H](NC(=O)[C@H](CO)NC(=O)[C@H](Cc1c[nH]cn1)NC(=O)[C@H](Cc1c[nH]cn1)NC(=O)[C@H](Cc1ccc(O)cc1)NC(=O)[C@H](CCCNC(=N)N)NC(=O)[C@H](CCCNC(=N)N)NC(=O)[C@@H](N)CC(C)C)C(C)C)C(=O)N[C@@H](CCCNC(=N)N)C(=O)N1CCC[C@H]1C(=O)N[C@@H](Cc1ccc(O)cc1)C(=O)N[C@H](C(=O)N[C@@H](CCCCN)C(=O)O)[C@@H](C)O [compound 62] (H-LRRYHHSVESSLRPYTK-OH; N-terminus and C-terminus assumed) | – | 4% | – | – |
| CC(C)C[C@H](NC(=O)[C@H](CO)NC(=O)[C@H](CO)NC(=O)[C@H](CCCNC(=N)N)NC(=O)[C@@H](C)NC(=O)[C@H](CO)NC(=O)[C@H](Cc1c[nH]cn1)NC(=O)[C@H](Cc1c[nH]cn1)NC(=O)[C@H](Cc1ccc(O)cc1)NC(=O)[C@H](CCCNC(=N)N)NC(=O)[C@H](CCCNC(=N)N)NC(=O)[C@@H](N)CC(C)C)C(=O)N[C@@H](CCC(=O)O)C(=O)N1CCC[C@H]1C(=O)N[C@@H](Cc1ccc(O)cc1)C(=O)N[C@H](C(=O)N[C@@H](CCCCN)C(=O)O)[C@@H](C)O [compound 65] (H-LRRYHHS[dA]RSSLEPYTK-OH; N-terminus and C-terminus assumed) | – | −5% | – | – |
